Reference: PubChem BioAssay AID262 (DTP/NCI, 2004)
“And” between values parts separate entries of the source, which are not always exact repeats. Equal values may be shown once.

Tested on: LX-1 lung xenograft sc, nude mice, tumor weight
Experiment: NCI In Vivo Anticancer Drug Screen. Data for tumor model Human Lung LX-1 Xenograft (subcutaneous) in NU/NU Swiss (nude) mice
Conditions: endpoint: optimum tumor weight change, higher = larger tumour
Procedure: The antitumor activity of compounds was measured in mice bearing transplantable tumors. Survival or tumor size were measured and the results are expressed as the measurement made in the treated group (T) divided by the measurement made in the vehicle treated control group (C). The tumor model used in this assay is Human Lung LX-1 Xenograft (subcutaneous) in NU/NU Swiss (nude) mice

[1] = dose: 200.0 mg/kg/injection, schedule: Q04DX003 (ip), vehicle: saline
[2] = dose: 400.0 mg/kg/injection, schedule: Q04DX003 (ip), vehicle: saline
[3] = dose: 800.0 mg/kg/injection, schedule: Q04DX003 (ip), vehicle: saline
[4] = dose: 25.0 mg/kg/injection, schedule: Q04DX003 (ip), vehicle: Klucel (hydroxypropylcellulose) (HPC)
[5] = dose: 50.0 mg/kg/injection, schedule: Q04DX003 (ip), vehicle: Klucel (hydroxypropylcellulose) (HPC)
[6] = dose: 200.0 mg/kg/injection, schedule: Q04DX003 (ip), vehicle: Klucel (hydroxypropylcellulose) (HPC)
[7] = dose: 200.0 mg/kg/injection, schedule: Q04DX003 (ip), vehicle: suspension in saline
[8] = dose: 100.0 mg/kg/injection, schedule: Q04DX003 (ip), vehicle: Klucel (hydroxypropylcellulose) (HPC)
[9] = dose: 100.0 mg/kg/injection, schedule: Q04DX003 (ip), vehicle: suspension in saline
[10] = dose: 400.0 mg/kg/injection, schedule: Q04DX003 (ip), vehicle: suspension in saline

Structure (SMILES): CN(C)c1nc(N(C)C)nc(N(C)C)n1
- T/C (dose: 60.0 mg/kg/injection, schedule: Q01DX005 (ip), vehicle: Klucel (hydroxypropylcellulose) (HPC)): 71 % of control
- T/C (dose: 60.0 mg/kg/injection, schedule: Q07DX005 (ip), vehicle: Klucel (hydroxypropylcellulose) (HPC)): 188 % of control
- T/C (dose: 120.0 mg/kg/injection, schedule: Q01DX005 (ip), vehicle: Klucel (hydroxypropylcellulose) (HPC)): 85 % of control
- T/C (dose: 120.0 mg/kg/injection, schedule: Q07DX005 (ip), vehicle: Klucel (hydroxypropylcellulose) (HPC)): 78 % of control

Structure (SMILES): N=c1nc2n(cc1F)[C@@H]1O[C@H](CO)[C@@H](O)[C@@H]1O2
- T/C (dose: 100.0 mg/kg/injection, schedule: Q04DX003 (ip), vehicle: saline): 67 % of control
- T/C [1]: 59 % of control
- T/C [2]: 78 % of control
- T/C [3]: 72 % of control

Structure (SMILES): Nc1ccc(Cl)cc1N
- T/C (dose: 100.0 mg/kg/injection, schedule: Q04DX003 (ip), vehicle: saline with Tween-80): 101 % of control

Structure (SMILES): CCN(C)N=Nc1ccc(C(N)=O)cc1
- T/C [4]: 67 % of control
- T/C [5]: 9 % of control
- T/C [6]: -60 % of control

Structure (SMILES): CC(C)=CCNc1ncnc2c1ncn2C1OC(CO)C(O)C1O (configuration not stated)
- T/C [7]: 150 % of control

Structure (SMILES): Cc1c(CNc2ccc(C(=O)NC(CC(=O)O)C(=O)O)cc2)ccc2nc(N)nc(N)c12 (configuration not stated)
- T/C (dose: 6.0 mg/kg/injection, schedule: Q04DX003 (ip), vehicle: saline with Tween-80): 63 % of control
- T/C (dose: 12.0 mg/kg/injection, schedule: Q04DX003 (ip), vehicle: saline with Tween-80): 94 % of control
- T/C (dose: 24.0 mg/kg/injection, schedule: Q04DX003 (ip), vehicle: saline with Tween-80): 81 % of control

Structure (SMILES): CCc1ccccc1N1CCN(C(=O)c2cc(OC)c(OC)c(OC)c2)CC1
- T/C [4]: 62 % of control and 85 % of control
- T/C [8]: 60 % of control

Structure (SMILES): Cc1c(N)nc([C@H](CC(N)=O)NC[C@H](N)C(N)=O)nc1C(=O)N[C@H](C(=O)N[C@H](C)[C@@H](O)CC(=O)N[C@H](C(=O)NC(O[C@@H]1O[C@@H](C)[C@@H](N)[C@@H](O)[C@H]1O)C(O)c1nc(-c2nc(C(=O)NCCCCN)cs2)cs1)[C@@H](C)O)[C@@H](O[C@@H]1O[C@@H](CO)[C@@H](O)[C@H](O)[C@@H]1O[C@H]1O[C@H](CO)[C@@H](O)[C@H](OC(N)=O)[C@@H]1O)c1c[nH]cn1 (some centres not stated)
- T/C (dose: 2.0 mg/kg/injection, schedule: Q04DX003 (ip), vehicle: saline): 77 % of control

Structure (SMILES): CN(C)N=Nc1cn[nH]c1C(N)=O
- T/C [5]: 2 % of control
- T/C [6]: 53 % of control
- T/C (dose: 400.0 mg/kg/injection, schedule: Q04DX003 (ip), vehicle: Klucel (hydroxypropylcellulose) (HPC)): -43 % of control

Structure (SMILES): CC(C)CCCCCCCCCCCCC(=O)NCC(=O)NC1C(O)C(O)C(Nc2ncnc3nc[nH]c23)OC1C(O)CO (configuration not stated)
- T/C (dose: 3.0 mg/kg/injection, schedule: Q04DX003 (ip), vehicle: suspension in saline): 81 % of control
- T/C (dose: 12.0 mg/kg/injection, schedule: Q04DX003 (ip), vehicle: suspension in saline): 34 % of control

Structure (SMILES): COC1C(C)OC(OC2CC(C)(O)Cc3cc4c(c(O)c32)C(=O)c2c(O)cc3c(c2C4=O)OC2OC3(C)C(O)C(N(C)C)C2O)C(OC)C1(C)OC (configuration not stated)
- T/C (dose: 2.5 mg/kg/injection, schedule: Q04DX003 (ip), vehicle: Klucel (hydroxypropylcellulose) (HPC)): 69 % of control
- T/C (dose: 5.0 mg/kg/injection, schedule: Q04DX003 (ip), vehicle: Klucel (hydroxypropylcellulose) (HPC)): 75 % of control
- T/C (dose: 10.0 mg/kg/injection, schedule: Q04DX003 (ip), vehicle: Klucel (hydroxypropylcellulose) (HPC)): 56 % of control
- T/C (dose: 20.0 mg/kg/injection, schedule: Q04DX003 (ip), vehicle: Klucel (hydroxypropylcellulose) (HPC)): 38 % of control

Structure (SMILES): CO[C@H]1C[C@](C)(O)Cc2cc3c(c(O)c21)C(=O)c1c(O)cc2c(c1C3=O)O[C@@H]1O[C@@]2(C)[C@H](O)[C@@H](N(C)C)[C@@H]1O
- T/C (dose: 6.25 mg/kg/injection, schedule: Q04DX003 (ip), vehicle: other): 53 % of control
- T/C (dose: 12.5 mg/kg/injection, schedule: Q04DX003 (ip), vehicle: other): 114 % of control

Structure (SMILES): N[C@H](C(=O)O)[C@@H]1CC(Cl)=NO1
- T/C (dose: 8.0 mg/kg/injection, schedule: Q01DX009 (ip), vehicle: saline): 31 % of control
- T/C (dose: 16.0 mg/kg/injection, schedule: Q01DX009 (ip), vehicle: saline): 17 % of control
- T/C (dose: 32.0 mg/kg/injection, schedule: Q01DX009 (ip), vehicle: saline): 24 % of control
- T/C [9]: 36 % of control
- T/C [7]: 27 % of control
- T/C [2]: 6 % of control
- T/C [10]: 15 % of control

Structure (SMILES): CC(C)CCCCCCCCCCCCC(=O)NCC(=O)NC1C(C)OC(Nc2ncnc3nc[nH]c23)C(O)C1O (configuration not stated)
- T/C (dose: 6.25 mg/kg/injection, schedule: Q04DX003 (ip), vehicle: saline with Tween-80): 34 % of control

Structure (SMILES): CCC1=C[C@H]2CN(CCc3c([nH]c4ccccc34)[C@@](C(=O)OC)(c3cc4c(cc3OC)N(C)[C@H]3[C@@](O)(C(=O)NC)[C@H](OC(C)=O)[C@]5(CC)C=CCN6CC[C@]43[C@@H]65)C2)C1
- T/C (dose: 0.25 mg/kg/injection, schedule: Q04DX003 (ip), vehicle: water): 69 % of control
- T/C (dose: 0.5 mg/kg/injection, schedule: Q04DX003 (ip), vehicle: water): 40 % of control
- T/C (dose: 1.0 mg/kg/injection, schedule: Q04DX003 (ip), vehicle: water): 98 % of control

Structure (SMILES): [N-]=[N+]=CC(=O)CCC(N)C(=O)O (configuration not stated)
- T/C (dose: 37.5 mg/kg/injection, schedule: Q04DX003 (ip), vehicle: saline): -87 % of control

Structure (SMILES): Oc1ccc(O)cc1
- T/C (dose: 50.0 mg/kg/injection, schedule: Q04DX003 (ip), vehicle: saline): 201 % of control

Structure (SMILES): CN(CO)c1nc(N(C)CO)nc(N(C)CO)n1
- T/C (dose: 25.0 mg/kg/injection, schedule: Q01DX005 (ip), vehicle: saline): 79 % of control and 226 % of control
- T/C (dose: 25.0 mg/kg/injection, schedule: Q04DX005 (ip), vehicle: saline): 114 % of control
- T/C (dose: 50.0 mg/kg/injection, schedule: Q01DX005 (ip), vehicle: saline): 59 % of control and 73 % of control
- T/C (dose: 50.0 mg/kg/injection, schedule: Q04DX005 (ip), vehicle: saline): 79 % of control and 84 % of control
- T/C (dose: 50.0 mg/kg/injection, schedule: Q07DX005 (ip), vehicle: saline): 29 % of control
- T/C (dose: 100.0 mg/kg/injection, schedule: Q01DX005 (ip), vehicle: saline): 102 % of control and 122 % of control
- T/C (dose: 100.0 mg/kg/injection, schedule: Q04DX005 (ip), vehicle: saline): 93 % of control
- T/C (dose: 100.0 mg/kg/injection, schedule: Q07DX005 (ip), vehicle: saline): 26 % of control and 33 % of control
- T/C (dose: 200.0 mg/kg/injection, schedule: Q01DX005 (ip), vehicle: saline): -5 % of control
- T/C (dose: 200.0 mg/kg/injection, schedule: Q07DX005 (ip), vehicle: saline): 49 % of control and 55 % of control

Structure (SMILES): O=[N+]([O-])/C=C\c1ccc2c(c1)OCO2
- T/C (dose: 12.5 mg/kg/injection, schedule: Q04DX003 (ip), vehicle: Klucel (hydroxypropylcellulose) (HPC)): 89 % of control
- T/C [4]: 63 % of control and 88 % of control
- T/C [5]: 64 % of control and 73 % of control
- T/C [8]: 103 % of control

Structure (SMILES): N=c1ccn2c(n1)OC1C(O)C(CO)OC12 (configuration not stated)
- T/C [1]: 66 % of control
- T/C [2]: 83 % of control
- T/C [10]: 45 % of control and 61 % of control
- T/C [3]: 41 % of control
- T/C (dose: 800.0 mg/kg/injection, schedule: Q04DX003 (ip), vehicle: suspension in saline): 17 % of control
- T/C (dose: 1600.0 mg/kg/injection, schedule: Q04DX003 (ip), vehicle: saline): 18 % of control
- T/C (dose: 1600.0 mg/kg/injection, schedule: Q04DX003 (ip), vehicle: suspension in saline): 27 % of control

Structure (SMILES): CC(CN1CC(=O)NC(=O)C1)N1CC(=O)NC(=O)C1 (configuration not stated)
- T/C (dose: 50.0 mg/kg/injection, schedule: Q04DX003 (ip), vehicle: suspension in saline): 70 % of control
- T/C [9]: 53 % of control

Structure (SMILES): COc1cccc2c1C(=O)c1c(O)c3c(c(O)c1C2=O)C[C@@](O)(C(=O)CO)C[C@@H]3OC1CC(N)CC(C)O1 (some centres not stated)
- T/C (dose: 0.4 mg/kg/injection, schedule: Q04DX003 (ip), vehicle: water): 67 % of control
- T/C (dose: 0.79 mg/kg/injection, schedule: Q04DX003 (ip), vehicle: water): 109 % of control
- T/C (dose: 1.57 mg/kg/injection, schedule: Q04DX003 (ip), vehicle: water): 99 % of control
- T/C (dose: 3.13 mg/kg/injection, schedule: Q04DX003 (ip), vehicle: water): 90 % of control

Structure (SMILES): COc1cc([C@@H]2c3cc4c(c(O)c3C[C@H]3COC(=O)[C@@H]32)OCO4)cc(OC)c1O
- T/C (dose: 3.13 mg/kg/injection, schedule: Q04DX003 (ip), vehicle: saline): 122 % of control
- T/C (dose: 6.25 mg/kg/injection, schedule: Q04DX003 (ip), vehicle: saline): 55 % of control
